Measurements published in patent US20040132793A1, “Pyrazole derivatives” (Pfizer Inc., priority 2002, published 2004).

Assays:
[1] = molecular target: T1, purified recombinant HIV-1 reverse transcriptase (Human immunodeficiency virus type 1 group M subtype B, UniProt P04585); test: Inhibition of HIV-1 reverse transcriptase enzyme; format: biochemical
T1 construct: purified recombinant HIV-1 reverse transcriptase (RT, EC, 2.7.7.49); made in house; host or cells: Escherichia coli
Text: The activity of the compounds of the invention as reverse transcriptase inhibitors may be measured using the following assay.
Inhibition of HIV-1 Reverse Transcriptase Enzyme
Using purified recombinant HIV-1 reverse transcriptase (RT, EC, 2.7.7.49) obtained by expression in Escherichia Coli, a 96-well plate assay system is established for assaying a large number of samples using either the Poly(rA)-oligo(dT) Reverse Transcriptase [3H]-SPA enzyme assay system (Amersham NK9020) or the [3H]-flashplate enzyme assay system (NEN-SMP 103) and following the manufacturer's recommendations. The compounds are dissolved in 100% DMSO and diluted with the appropriate buffer to a 5% final DMSO concentration. The inhibitory activity is expressed in percent inhibition relative to DMSO control.

[2] = Metabolism in human liver microsomes; format: in vitro ADME; details: pH 7.4, human microsomes 0.5 μM cytochrome P450, substrate 1 μM, 37° C., 1 hour, read-out: t 1/2 (human microsomal)
Method: (§1) A. Metabolism in Human Liver Microsomes and Supermix™ The metabolic vulnerability of the compounds of the invention in microsomes and Supermix™ may be assayed as follows. The microsomal fraction is isolated from several human livers and the P450 content determined. Supermix™ is obtained from Gentest. Human microsomes (0.5 μM cytochrome P450) and Supermix™ (0.05 μM cytochrome P450) are added to an incubation media containing 50 mM phosphate buffer (pH7.4), 5 mM MgCl2, 1 mM NADP and an NADPH generating system consisting of isocitrate and isocitrate dehydrogenase. The substrate concentration is 1 μM and incubations are carried out at 37° C. for 1 hour. Samples are taken at time points throughout this period and analysed using hplc-ms-ms assay.

Metabolism in Supermix = format: in vitro ADME; details: human, Supermix (Gentest), pH 7.4; Supermix 0.05 μM cytochrome P450; substrate 1 μM; 37° C., 1 hour; read-out: t 1/2 (Supermix)
Method: as §1

[3] = Metabolism in human hepatocytes; format: in vitro ADME; details: cryopreserved human hepatocytes 1 million cells/ml; substrate 3 μM; 37° C., 3 hours
Method: B. Metabolism in Human Hepatocytes.
The metabolic vulnerability of the compounds of the invention in human hepatocytes may be assayed as follows.
Cryopreserved human hepatocytes are obtained from In vitro Technologies, Inc. The hepatocytes are thawed and suspended at 1 million cells/ml in 50% Krebs-Heinsleit buffer: 50% Williams E media containing 10% foetal bovine serum. The substrate concentration is 3 μM and incubations are carried out at 37° C. for 3 hours. Samples are taken at time points throughout this period and analysed using hplc-ms-ms assay.

Question: Which IC50 [1] does the source give for `Cc1c(Oc2cc(C#N)cc(C#N)c2)c(C2CC2)nn1CCO` [Example 1, 5-{[3-Cyclopropyl-1-(2-hydroxyethyl)-5-methyl-1H-pyrazol-4-yl]oxy}isophthalonitrile] here?
Answer: 295 nM

Question: What about the half-life at 1 μM [2] of the same compound?
Answer: > 2 h

Question: What about the half-life at 1 μM (Metabolism in Supermix) of the same compound?
Answer: > 2 h

Question: And the unbound hepatocyte clearance [3]?
Answer: < 9 mL/min/kg
